In patent publication US20250206751A1, “HETEROCYCLIC COMPOUND FOR INDUCING DEGRADATION OF G12D MUTANT KRAS PROTEIN” (Astellas Pharma Inc., priority 2022, published 2025) one finds DC50 and IC50 data, which are given here for ten molecules.

For one assay, the target named is T1, KRAS G12D protein (Homo sapiens, UniProt P01116, G12D).
T1 construct: host or cells: AsPC-1
Briefly: KRAS degradation activity by Cell ELISA in AsPC-1 (Test Example 1). It is filed as cell-based. The conditions noted are these: AsPC-1 cells, cultured overnight with compound, corrected with β-actin, read-out: DC50 (50% degradation concentration of the amounts of KRAS). How it is done: Test Example 1: Evaluation of KRAS Degradation Activity on Human G12D Mutant KRAS-Positive Pancreatic Cancer Line AsPC-1 (CRL-1682; ATCC)
The KRAS degradation activity of test compounds was evaluated by measuring the expression levels of KRAS G12D protein by Cell ELISA.
AsPC-1 cells were seeded at 20 μL per well on 384-well plates (from Greiner bio-one) to give 2.0×10^4 cells per well. As for the cell culture conditions, RPMI 1640 (from Sigma-Aldrich) medium containing 10% fetal bovine serum (from Cytiva) was used in the presence of 5% CO2 at 37° C.
The next day, the test compounds (10 points having final concentrations in the range of 10 μM to 0.3 nM) and DMSO (from FUJIFILM Wako Pure Chemical Corporation), which was the solvent for the test compounds, as a negative control were diluted 500-fold with a fresh medium and were added at 20 μL per well. The cells were cultured overnight.
The next day, the culture supernatant was removed, and 4% paraformaldehyde phosphate buffer (from FUJIFILM Wako Pure Chemical Corporation) was added at 20 μL per well. The plates were allowed to stand for 30 minutes at room temperature to thus immobilize the cells. Then, the supernatant was removed, and 0.1% Triton X-100 (from Amersham Biosciences)-containing Phosphate buffered saline (PBS; from FUJIFILM Wako Pure Chemical Corporation) was added at 20 μL per well. After allowing to stand for 10 minutes at room temperature, the supernatant was removed. PBS was added at 25 μL per well, and the supernatant was removed to thus wash each well. The washing was performed twice in total. Next, the supernatant was removed, and 0.5% sodium dodecyl sulfate (SDS; from Invitrogen)-containing PBS was added at 20 μL per well. After allowing to stand at room temperature for 10 minutes, the supernatant was removed by a centrifugal operation (using a centrifugal dehydrator machine, the supernatant was removed by the same method hereinafter). PBS was added at 25 μL per well, and the supernatant was removed to thus wash each well. The washing was performed twice in total. The supernatant was removed, and blocking solution (Intercept Blocking Buffer; from Li-COR Biosciences) was added at 20 μL per well. After allowing to stand for 30 minutes at room temperature, the supernatant was removed, and a solution obtained by diluting anti-β-actin antibody (Anti-beta Actin antibody [mAbcam 8226]-Loading Control; from abcam) 1,000-fold with blocking solution and a solution obtained by diluting anti-Ras (G12D Mutant Specific) antibody (Ras (G12D Mutant Specific) (D8H7) Rabbit mAb #14429; from Cell Signaling Technology) and anti-β-actin antibody (from abcam) 1,000-fold with blocking solution were respectively added to positive control wells and the other wells at 20 μL per well as a primary antibody. The plate was allowed to stand overnight at 4° C.
The next day, the supernatant was removed. PBS was added at 25 μL per well, and the supernatant was removed to thus wash each well. The washing was performed twice in total. The supernatant was removed, and a solution obtained by diluting Donkey anti-Mouse IgG H&L (IRDye 680RD) (from Li-COR Biosciences) and Goat anti-Rabbit IgG H&L (IRDye 800CW) (from Li-COR Biosciences) 1,000-fold with blocking solution was added at 20 μL per well as a secondary antibody. After allowing to stand for 1 hour at room temperature, the supernatant was removed. PBS was added at 25 μL per well, and the supernatant was removed to thus wash each well. The washing was performed twice in total. After removing the supernatant, the plate was dried with air at room temperature for 2 hours or more, and the 700 nm and 800 nm fluorescent signals were measured with Aerius (from Li-COR Biosciences). […]
For orientation: An ELISA detects its analyte on a solid surface through an enzyme-linked reagent.

For assay [1], the system named is human G12D mutant KRAS-positive pancreatic cancer line AsPC-1. Briefly: Non-anchorage-dependent cell growth inhibition, spheroid 3D cell culture (Test Example 3). It is filed as cell-based. The conditions noted are these: AsPC-1 spheroid 3D culture, 6 days, CellTiter Glo 2.0. How it is done:
Test Example 3: Evaluation of Non-Anchorage-Dependent Cell Growth Inhibitory Effect on Human G12D Mutant KRAS-Positive Pancreatic Cancer Line AsPC-1
The non-anchorage-dependent cell growth inhibitory effect of test compounds was evaluated by spheroid 3D cell culture.
AsPC-1 cells were seeded on low-cell-adhesive round bottom 384-well plates (PrimeSurface: from Sumitomo Bakelite) at 36 μL/well to give 5×10^2 cells per well. As for the cell culture conditions, RPMI 1640 medium containing 10% fetal bovine serum was used in the presence of 5% CO2 at 37° C.
The next day, the test compounds (10 or 6 points having final concentrations in the range of 10 μM to 0.3 nM) and DMSO, which was the solvent for the test compounds, as a negative control were diluted 100-fold with a fresh medium and were added at 4 μL per well. After culturing in the presence of 5% CO2 at 37° C. for 6 days, CellTiter Glo 2.0 (from Promega) was added at 20 μL per well. After stirring with a plate mixer (from FINEPCR) at room temperature for 1 hour, the luminescent signals were measured with ARVO X3 (from PerkinElmer).
With the signaling value in treatment with DMSO taken as 100% and with the signaling value in the medium alone without cells taken as 0%, the 50% inhibitory concentration values (IC50) were calculated by Sigmoid-Emax nonlinear regression analysis.

Assay [2] relates to phosphorylation of threonine 202 (Thr202) and tyrosine 204 (Tyr204) of ERK. The assay can be described thus: ERK phosphorylation inhibitory effect by Cell ELISA in AsPC-1 (Test Example 2). It is filed as cell-based, human. Particulars: cultured overnight with compound, 1 μM trametinib taken as 0%. How it is done: Test Example 2: Evaluation of ERK Phosphorylation Inhibitory Effect on Human G12D Mutant KRAS-Positive Pancreatic Cancer Line AsPC-1
The ERK phosphorylation inhibitory effect of test compounds was evaluated by measuring phosphorylation of threonine 202 (Thr202) and tyrosine 204 (Tyr204) of ERK located downstream of the KRAS signal by Cell ELISA.
AsPC-1 cells were seeded on 384-well plates at 36 μL/well to give 2.0×10^4 cells per well. As for the cell culture conditions, RPMI 1640 medium containing 10% fetal bovine serum was used in the presence of 5% CO2 at 37° C.
The next day, the test compounds (10 points having final concentrations in the range of 10 μM to 0.3 nM), trametinib (MEK inhibitor) of a final concentration of 1 μM as positive control and DMSO, which was the solvent for the test compounds, as negative control were diluted 100-fold with a fresh medium and were added at 4 μL per well. The cells were cultured overnight. After culturing, 30% glyoxal solution (40% glyoxal [from Nacalai Tesque] was diluted with PBS) was quickly added at 30 μL per well, and the plate was allowed to stand for 60 minutes at room temperature to thus immobilize the cells. Then, the plate was centrifuged to remove the supernatant (using a centrifugal dehydrator machine, the supernatant was removed by the same method hereinafter), and 0.1% Triton X-100-containing PBS was added at 20 μL per well. After allowing to stand for 10 minutes at room temperature, the supernatant was removed, and the same operation was further repeated. Next, 0.5% SDS-containing PBS was added at 20 μL per well, and after allowing to stand at room temperature for 30 minutes, the supernatant was removed. Subsequently, blocking solution (Intercept Blocking Buffer) was added at 20 μL per well, and the plate was allowed to stand for 1 hour at room temperature. The supernatant was removed, and an ERK (Thr202/Tyr204) phosphorylation antibody (Phospho-p44/42 MAPK (Erk 1/2) (Thr202/Tyr204) (D13.14.4E) XP Rabbit mAb; from Cell Signaling Technology) diluted 2,500-fold with blocking solution was added at 15 μL per well as a primary antibody. The plates were allowed to stand at 4° C. overnight.
The next day, the supernatant was removed. 0.05% Tween-20 (from Thermo Fisher Scientific)-containing PBS was added at 50 μL per well, and the supernatant was removed to thus wash each well. The washing was performed three times in total. After washing, Goat anti-Rabbit IgG H&L (IRDye 800CW) diluted 1,000-fold with blocking solution was added at 15 μL per well as a secondary antibody, and the plates were allowed to stand for 1 hour at room temperature. The supernatant was removed, and each well was washed three times with 0.05% Tween-20-containing PBS in the same manner as after the primary antibody reaction. After removing the supernatant, the plates were dried with air at room temperature for 3 hours or more, and the 800-nm fluorescent signals were measured with Aerius.
With the signaling value at the time of addition of DMSO taken as 100% and with the signaling value at the time of addition of 1 μM trametinib taken as 0%, the 50% inhibitory concentration values (IC50) were calculated by Sigmoid-Emax nonlinear regression analysis.

Where [3] appears, read: Homo sapiens, ASPC1, AsPC-1 cells.

pIC50: −log10 of the molar value.

T1 sequence (P01116 1-188 isoform P01116-2 G12D): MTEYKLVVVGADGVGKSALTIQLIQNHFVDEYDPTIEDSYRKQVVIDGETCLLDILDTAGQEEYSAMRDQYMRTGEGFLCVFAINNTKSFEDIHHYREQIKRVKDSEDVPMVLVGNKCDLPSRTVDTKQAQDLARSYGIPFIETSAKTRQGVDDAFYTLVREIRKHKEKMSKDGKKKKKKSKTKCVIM

By pIC50 is commonly meant −log10 of the IC50, conventionally taken in molar units. On to `CO[C@@H](C)COc1nc(N(C)[C@H]2CCNC2)c2cc(C3CC3)c(-c3c(C)c(F)cc4[nH]ncc34)c(OCc3ccc(-c4cn([C@H](C(=O)N5C[C@H](O)C[C@H]5C(=O)N[C@@H](CO)c5ccc(-c6ocnc6C)cc5)C(C)C)nn4)cc3)c2n1` (atropisomer, axis not shown) [Example 14], for which the DC50 at KRAS G12D protein was 20 nM. The pIC50 in assay [1] (Homo sapiens, ASPC1, 144 h) is 8.40; in assay [2] (setting [3]), 8.40.

As for `Cc1ncsc1-c1ccc([C@H](CO)NC(=O)[C@@H]2C[C@@H](O)CN2C(=O)[C@H](C(C)C)n2cc(-c3ccc(COc4c(-c5c(C)c(F)cc6[nH]ncc56)c(C5CC5)cc5c(N(C)[C@H]6CCNC6)nc(OCCC(F)(F)F)nc45)cc3)nn2)cc1` (atropisomer, axis not shown) [Example 37], the DC50 on KRAS G12D protein was 58 nM. Further, the pIC50 was 7.49 in assay [1] (Homo sapiens, ASPC1, 144 h) and 7.49 in assay [2] (setting [3]).

As for `Cc1ncoc1-c1ccc([C@H](CO)NC(=O)[C@@H]2C[C@@H](O)CN2C(=O)[C@H](C(C)C)n2cc(-c3ccc(COc4c(-c5c(C)c(F)cc6[nH]ncc56)c(C5CC5)cc5c(N(C)[C@H]6CCNC6)nc(OC[C@@H]6CCCO6)nc45)cc3)nn2)cc1` (atropisomer, axis not shown) [Example 28], on KRAS G12D protein, the DC50 was determined as 47 nM. Further, the pIC50 was 8.30 in assay [1] (Homo sapiens, ASPC1, 144 h) and 8.30 in assay [2] (setting [3]).

`CO[C@@H](C)COc1cc(O[C@H]2CCNC2)c2cc(C3CC3)c(-c3c(C)c(F)cc4[nH]ncc34)c(OCc3ccc(-c4cn([C@H](C(=O)N5C[C@H](O)C[C@H]5C(=O)N[C@@H](CO)c5ccc(-c6scnc6C)cc5)C(C)C)nn4)cc3)c2n1` [Example 22]: the DC50 on KRAS G12D protein was found to be 59 nM. Moreover, the pIC50 was 8.30 in assay [1] (Homo sapiens, ASPC1, 144 h) and 8.30 in assay [2] (setting [3]).

Consider `Cc1ncsc1-c1ccc([C@H](CO)NC(=O)[C@@H]2C[C@@H](O)CN2C(=O)[C@H](C(C)C)n2cc(-c3ccc(COc4c(-c5c(C)c(F)cc6[nH]ncc56)c(C5CC5)cc5c(N(C)[C@H]6CCNC6)nc(OCC(C)(C)F)nc45)cc3)nn2)cc1` (atropisomer, axis not shown) [Example 33], for which the DC50 at KRAS G12D protein worked out at 33 nM. Besides, the pIC50 in assay [1] (Homo sapiens, ASPC1, 144 h) was 7.62; in assay [2] (setting [3]) it was 7.35.

Turning to `CO[C@@H](C)COc1cc(N(C)[C@H]2CCNC2)c2cc(C3CC3)c(-c3c(C)c(F)cc4[nH]ncc34)c(OCc3ccc(-c4cn([C@H](C(=O)N5C[C@H](O)C[C@H]5C(=O)N[C@@H](CO)c5ccc(-c6scnc6C)cc5)C(C)C)nn4)cc3)c2n1` [Example 56], the DC50 on KRAS G12D protein came out at 28 nM. Besides, the pIC50 in assay [1] was 7.14; in assay [2] (AsPC-1 cells), 7.77.

Regarding `CCn1nccc1-c1ccc([C@H](CO)NC(=O)[C@@H]2C[C@@H](O)CN2C(=O)[C@H](C(C)C)n2cc(-c3ccc(COc4c(-c5c(C)c(F)cc6[nH]ncc56)c(C5CC5)cc5c(N(C)[C@H]6CCNC6)nc(OC[C@@H]6CCCO6)nc45)cc3)nn2)cc1` (atropisomer, axis not shown) [Example 26], the DC50 on KRAS G12D protein is 22 nM. In addition, the pIC50 was 8.52 in assay [1] (Homo sapiens, ASPC1, 144 h) and 8.70 in assay [2] (setting [3]).

Take `CO[C@@H](CF)COc1nc(N(C)[C@H]2CCNC2)c2cc(C3CC3)c(-c3c(C)c(F)cc4[nH]ncc34)c(OCc3ccc(-c4cn([C@H](C(=O)N5C[C@H](O)C[C@H]5C(=O)N[C@@H](CO)c5ccc(-c6scnc6C)cc5)C(C)C)nn4)cc3)c2n1` (atropisomer, axis not shown) [Example 47]: on KRAS G12D protein, the DC50 stood at 26 nM. Also, the pIC50 in assay [1] (Homo sapiens, ASPC1, 144 h) is 7.82; in assay [2] (setting [3]), 7.66.

Take `Cc1ncsc1-c1ccc([C@H](CO)NC(=O)[C@@H]2C[C@@H](O)CN2C(=O)[C@H](C(C)C)n2cc(-c3ccc(COc4c(-c5c(C)c(F)cc6[nH]ncc56)c(C5CC5)cc5c(N(C)[C@H]6CCNC6)nc(OC[C@H]6CCOC6)nc45)cc3)nn2)cc1` (atropisomer, axis not shown) [Example 17]: the DC50 on KRAS G12D protein amounted to 74 nM. The pIC50 in assay [1] (Homo sapiens, ASPC1, 144 h) was 8.10; in assay [2] (setting [3]), 8.15.

Take `CO[C@@H](C)COc1nc(O[C@H]2CCNC2)c2cc(C3CC3)c(-c3c(C)c(F)cc4[nH]ncc34)c(OCc3ccc(-c4cn([C@H](C(=O)N5C[C@H](O)C[C@H]5C(=O)N[C@@H](CO)c5ccc(-c6scnc6C)cc5)C(C)C)nn4)cc3)c2n1` (atropisomer, axis not shown) [Example 5]: on KRAS G12D protein, the DC50 came out at 9 nM. Moreover, the pIC50 in assay [1] (Homo sapiens, ASPC1, 144 h) is 8.00; in assay [2] (setting [3]), 7.92.
